US7097992B2, “Uses of human UDP-glucuronosyltransferase 2B7 to detect and treat cancer” (priority 2001, dated 2006)

What was measured:
human liver microsomes = test: In vitro glucuronidation of lysophosphatidic acids by human liver microsomes; type: in vitro ADME; details: for Glucuronidation by human liver microsomes (in words): FIG. 9A
Source text: (§1) Reactions with substrates were run in duplicates.
(§2) Lysophosphatidic acid (LPA) stimulates lysophosphatidic acid receptors which in turn activate PKC and Ras-MAPK signalling pathways. Lysophosphatidic acid is a lipid second messenger involved in progression of malignant ovarian cancer. Cellular effects of lysophosphatidic acid accumulation include stimulation of cell proliferation, inhibition of apoptosis and increased invasiveness of cancer cells. It was hypothesized that anti-proliferative activity of UDP-glucuronosyltransferase 2B7 in the ovarian cancer cell model described above may be associated with inactivation of lysophosphatidic acid through glucuronidation. Thus, in vitro glucuronidation experiments on three different lysophosphatidic acid compounds (FIG. 10) was conducted using human liver microsomes and a recombinant UDP-glucuronosyltransferase 2B7 expressed in HK293 cells.

[1] = biological target: T1, recombinant UDP-glucuronosyltransferase 2B7 (Homo sapiens, UniProt P16662); test: In vitro glucuronidation of lysophosphatidic acids by recombinant UGT2B7 expressed in HK293 cells; type: in vitro ADME; details: for Glucuronidation by UGT2B7 (in words): recombinant UGT2B7, FIG. 9A
T1 construct: made in house
T1 sequence (P16662 24-529): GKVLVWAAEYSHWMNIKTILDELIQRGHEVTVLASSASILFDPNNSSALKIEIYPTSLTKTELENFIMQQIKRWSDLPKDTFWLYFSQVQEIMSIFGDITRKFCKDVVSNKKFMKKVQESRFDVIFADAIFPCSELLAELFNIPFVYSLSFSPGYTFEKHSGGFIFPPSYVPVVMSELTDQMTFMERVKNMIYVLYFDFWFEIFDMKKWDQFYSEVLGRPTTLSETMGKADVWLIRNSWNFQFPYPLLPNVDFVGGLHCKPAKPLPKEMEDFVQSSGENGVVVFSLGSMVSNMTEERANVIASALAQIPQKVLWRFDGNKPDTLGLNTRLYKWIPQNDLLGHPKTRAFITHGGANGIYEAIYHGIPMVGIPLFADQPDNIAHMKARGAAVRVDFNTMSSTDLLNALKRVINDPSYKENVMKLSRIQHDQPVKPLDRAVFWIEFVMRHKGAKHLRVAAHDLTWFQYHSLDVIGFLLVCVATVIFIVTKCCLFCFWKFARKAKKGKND
Source text: as §1, §2

Row | Specific activity of glucuronidation (human liver microsomes) [pmol/min/mg] | Glucuronidation by human liver microsomes (in words) (human liver microsomes) | Glucuronidation by UGT2B7 (in words) [1] | Specific activity of glucuronidation ([1]; recombinant UGT2B7 expressed in HK293 cells) [pmol/min/mg] | Structure (SMILES)
1 | 560 | same activity profile | actively glucuronidated | 250 | CCCCCCCC/C=C\CCCCCCCC(=O)OCC(O)COP(=O)(O)O (centres unmarked) [oleoyl-lysophosphatidic acid]
2 | – | same activity profile | not | – | CCCCCCCCCCCCCCCC(=O)OC[C@@H](O)COP(=O)(O)O [palmitoyl-lysophosphatidic acid]
3 | – | same activity profile | not | – | CCCCCCCCCCCCCCCCCC(=O)OC[C@@H](O)COP(=O)(O)O [stearoyl-lysophosphatidic acid]
